Laboratory results from publication PMC3781056, “New Pyrazolopyrimidine Inhibitors of Protein Kinase D as Potent Anticancer Agents for Prostate Cancer Cells” (PLoS ONE, 2013).
“Also recorded” adds a separate entry of the source. Like-named read-outs stand apart in the source and are kept apart here.

Tests used:
[1] = target: T1, PKD1 (Homo sapiens, UniProt Q15139); experiment: In vitro radiometric PKD1 screening assay at 1 µM; format: biochemical
T1 construct: GST; purchased Enzo Life sciences (Farmingdale, NY)
T1 sequence (Q15139 1-912): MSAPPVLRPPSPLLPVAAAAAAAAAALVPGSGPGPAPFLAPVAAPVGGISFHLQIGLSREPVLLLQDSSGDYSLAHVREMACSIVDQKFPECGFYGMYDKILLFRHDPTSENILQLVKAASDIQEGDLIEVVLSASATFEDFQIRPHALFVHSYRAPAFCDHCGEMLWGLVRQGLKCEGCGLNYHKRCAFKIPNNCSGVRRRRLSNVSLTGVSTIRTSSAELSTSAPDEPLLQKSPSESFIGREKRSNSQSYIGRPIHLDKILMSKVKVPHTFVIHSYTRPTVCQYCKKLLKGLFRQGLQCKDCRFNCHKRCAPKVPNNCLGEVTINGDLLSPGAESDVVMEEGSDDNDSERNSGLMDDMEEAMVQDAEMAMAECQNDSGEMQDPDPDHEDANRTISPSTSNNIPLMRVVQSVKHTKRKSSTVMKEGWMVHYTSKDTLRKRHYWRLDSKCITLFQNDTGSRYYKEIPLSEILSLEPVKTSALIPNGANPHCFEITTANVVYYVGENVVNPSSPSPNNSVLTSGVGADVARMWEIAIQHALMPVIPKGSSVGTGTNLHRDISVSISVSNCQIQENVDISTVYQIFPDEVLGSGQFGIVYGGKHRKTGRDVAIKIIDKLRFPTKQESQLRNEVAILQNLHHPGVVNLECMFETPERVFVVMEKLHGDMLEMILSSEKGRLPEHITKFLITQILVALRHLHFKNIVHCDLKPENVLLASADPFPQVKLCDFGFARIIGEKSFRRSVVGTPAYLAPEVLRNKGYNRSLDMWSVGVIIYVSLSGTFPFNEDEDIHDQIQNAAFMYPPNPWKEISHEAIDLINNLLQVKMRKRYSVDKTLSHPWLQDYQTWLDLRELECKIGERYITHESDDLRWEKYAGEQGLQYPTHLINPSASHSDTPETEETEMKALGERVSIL
Method: Phosphorylation of HDAC5 was detected in a kinase reaction having 1 µCi [γ-^32P] […] The reaction was incubated at 30°C for 10 minutes and 25 µL of the reaction was spotted on Whatman P81 filter paper. The filter paper was washed 3 times in 0.5% phosphoric acid, air dried and counted using Beckman LS6500 multipurpose scintillation counter. Percent PKD1 inhibition was graphed using GraphPad Prism software 5.0.

[2] = target: T1, PKD1; experiment: ATP competition, Lineweaver-Burk analysis of PKD1 kinase activity; format: biochemical; details: Lineweaver-Burk plots, increasing ATP
Excerpt: Lineweaver-Burk plots were generated by plotting the reciprocal of reaction velocities (1/v) against the reciprocal of ATP concentrations (1/[ATP]) at different compound concentrations. The points were fitted by linear regression.
Data presented were representative of three independent experiments.

[3] = target: T2, PKCα (Homo sapiens, UniProt P17252); experiment: In vitro radiometric PKC kinase assay; format: biochemical
T2 construct: purchased SignalChem (Richmond, BC, Canada)
Method: (§1) The PKC kinase assay was carried out by co-incubating 1 µCi [γ-^32P]ATP, 20 µM ATP, 50 ng of purified PKCα or PKCδ and 5 µg of myelin basic protein 4–14, 0.25 mg/mL bovine serum albumin, 0.1 mg/mL phosphatidylcholine/phosphatidylserine (80/20%) (1 µM), 1 µM phorbol dibutyrate in 50 µL of kinase buffer containing 50 mM Tris-HCl, pH 7.5, 4 mM MgCl2 and 10 mM β-mercaptoethanol. For the CAMK assay, 50 ng of CAMKIIα and 2 µg syntide-2 substrate in 50 µL kinase buffer were incubated with 0.1 mM MgCl2, 1 µCi of [γ-^32P] ATP, 70 µM ATP. 0.5 mM CaCl2 and 30 ng/µL calmodulin were preincubated for 15 min on ice and then added in the kinase reaction. The reactions were incubated at 30°C for 10 min and 25 µL of the reaction was spotted on Whatman P81 filter paper. The filter paper was washed 3 times in 0.5% phosphoric acid, air dried and counted using Beckman LS6500 multipurpose scintillation counter.

[4] = target: T3, PKCδ (Homo sapiens, UniProt Q05655); experiment: In vitro radiometric PKC kinase assay; format: biochemical
T3 construct: purchased SignalChem (Richmond, BC, Canada)
Method: as §1

[5] = test system: PC3 cells; experiment: Wound healing assay (cell migration); format: cell-based; details: PC3, 30 µM, 22 h after wounding; control completely closed
Method: A.1-NA- PP1 blocked prostate cancer cell migration. PC3 cells were grown to confluence in 6-well plates. Monolayer was wounded and imaged immediately (0 h). […] Percentage wound healing was calculated as the percent of healed wound area as compared to the original wound. […] After 20 h, noninvasive cells were removed and invasive cells were fixed in 100% methanol, stained in 0.4% hematoxylin solution, and photographed. The number of cells that invaded the Matrigel matrix was determined by cell counts in 6 fields relative to the number of cells that migrated through the control insert. Percentage invasion was calculated as the percent of the cells invaded through Matrigel inserts vs. the total cells migrated through the control inserts. C. […] DU145 cells were infected with null, PKD1, and PKD3 adenoviruses (Adv-null, Adv-PKD1, and Adv-PKD3) at 100 MOI. After 24 h, cells were replated in control and Matrigel inserts, and a Matrigel invasion assay was conducted as described above. The overexpression of PKD1 and PKD3 was confirmed by Western blotting analysis (images below the graphs). […]
PC3 or DU145 cells were grown to confluence in 6-well plates. […] The wound gap was measured, and % wound healing was calculated. The average % wound healing was determined based on at least 6 measurements of the wound gap.

T3 sequence (Q05655 whole entry): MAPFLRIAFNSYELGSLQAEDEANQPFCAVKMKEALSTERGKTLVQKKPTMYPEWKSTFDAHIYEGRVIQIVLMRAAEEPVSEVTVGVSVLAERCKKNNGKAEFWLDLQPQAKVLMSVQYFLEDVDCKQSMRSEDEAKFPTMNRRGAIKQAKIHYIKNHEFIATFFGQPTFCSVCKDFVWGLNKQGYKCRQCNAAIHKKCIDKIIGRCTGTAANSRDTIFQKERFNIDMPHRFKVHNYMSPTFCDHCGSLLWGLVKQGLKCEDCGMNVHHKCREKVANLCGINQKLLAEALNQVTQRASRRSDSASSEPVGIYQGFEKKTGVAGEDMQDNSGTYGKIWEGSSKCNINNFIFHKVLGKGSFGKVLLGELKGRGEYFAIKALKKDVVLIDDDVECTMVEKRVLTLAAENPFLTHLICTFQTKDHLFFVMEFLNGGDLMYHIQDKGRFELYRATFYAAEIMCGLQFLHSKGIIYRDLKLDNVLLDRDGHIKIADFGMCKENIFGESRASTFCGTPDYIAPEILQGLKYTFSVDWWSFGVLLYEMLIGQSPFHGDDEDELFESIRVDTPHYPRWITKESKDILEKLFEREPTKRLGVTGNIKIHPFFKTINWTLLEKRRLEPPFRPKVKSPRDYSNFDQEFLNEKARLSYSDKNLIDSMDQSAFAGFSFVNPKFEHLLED

Row | % PKD1 Inhibition ([1]; 1 µM, targeted kinase inhibitor library screen, relative to DMSO) | inhibition of PKCα ([3]; 10 µM) | inhibition of PKCδ ([4]; 10 µM) | Compound | inhibition at 1 µM ([1]; read-out: % PKD1 Inhibition) | inhibition at 1 µM ([1]; read-out: inhibition of PKD1 activity) | mode of PKD1 inhibition with respect to ATP [2] | inhibition of PKCα, in words ([3]; 0.1, 1 and 10 µM) | inhibition of PKCδ, in words ([4]; 0.1, 1 and 10 µM) | wounded area remaining open [5]
1 | – | – | – | CC(C)(C)n1nc(-c2cccc3ccccc23)c2c(N)ncnc21 [Compound 1-NA-PP1, 1-(t-Butyl)-3-(naphthalen-1-yl)-1H-pyrazolo[3,4-d]pyrimidin-4-amine] | 77% | 80% | ATP-competitive inhibitors | No significant inhibitory activities; also recorded: did not significantly inhibit | No significant inhibitory activities; also recorded: did not significantly inhibit | 88.6%
2 | 67% | > 50% | > 50% | O=C(c1ccc(Nc2nccc(-c3cc4ccccc4s3)n2)cc1)N1CCC(N2CCCC2)CC1 [IKK-16, reference compound] | – | – | ATP-competitive inhibitors | – | – | –
